Tested on: Avena fatua
Assay: Post-emergence herbicidal activity against Avena fatua at 500 g a.i./ha measured after 15 days
Assay type: functional
Conditions: not given

Q: `Cc1cc(C)c(C2C(=O)N3C[C@H]4CCCC[C@@H]4CN3C2=O)c(C)c1` was tested. Which Activity did it give?
A: 50%

Q: With `Cc1cc(C)c(C2C(=O)N3C[C@H]4CCCC[C@H]4CN3C2=O)c(C)c1` (stereo partly drawn) as the molecule, how does the Activity read?
A: 80%

Q: How did the Activity turn out when `Cc1cc(C)c(C2C(=O)N3CC(C)CN3C2=O)c(C)c1` was run?
A: 90%

Q: With `Cc1cc(C)c(C2C(=O)N3CCC(C)CCN3C2=O)c(C)c1` as the molecule, how does the Activity read?
A: 90%

Q: How did the Activity turn out when `Cc1cc(C)c(C2C(=O)N3CC(C)C(C)CN3C2=O)c(C)c1` (stereo not drawn) was run?
A: 80%

Q: Which Activity does the source give for `Cc1cc(C)c(C2C(=O)N3CCCCCN3C2=O)c(C)c1` here?
A: 90%

Q: With `Cc1cc(C)c(C2C(=O)N3CC(C)(C)CN3C2=O)c(C)c1` as the molecule, how does the Activity read?
A: 90%

Tested on: Alopecurus myosuroides
Assay: Post-emergence herbicidal activity against Alopecurus myosuroides at 500 g a.i./ha measured after 15 days
Assay type: functional
Conditions: not given

Q: With `Cc1cc(C)c(C2C(=O)N3C[C@H]4CCCC[C@@H]4CN3C2=O)c(C)c1` as the molecule, how does the Activity read?
A: 60%

Q: Which Activity does the source give for `Cc1cc(C)c(C2C(=O)N3C[C@H]4CCCC[C@H]4CN3C2=O)c(C)c1` (stereo partly drawn) here?
A: 60%

Q: How did the Activity turn out when `Cc1cc(C)c(C2C(=O)N3CC(C)CN3C2=O)c(C)c1` was run?
A: 50%

Q: `Cc1cc(C)c(C2C(=O)N3CCC(C)CCN3C2=O)c(C)c1` was tested. Which Activity did it give?
A: 90%

Q: With `Cc1cc(C)c(C2C(=O)N3CC(C)C(C)CN3C2=O)c(C)c1` (stereo not drawn) as the molecule, how does the Activity read?
A: 80%

Q: `Cc1cc(C)c(C2C(=O)N3CCCCCN3C2=O)c(C)c1` was tested. Which Activity did it give?
A: 50%

Q: For `Cc1cc(C)c(C2C(=O)N3CC(C)(C)CN3C2=O)c(C)c1`, which Activity is on record?
A: 100%

Tested on: Triticum aestivum
Assay: Phytotoxicity against Triticum aestivum (wheat) at 500 g a.i./ha applied post-emergence measured after 15 days
Assay type: organism-based
Conditions: in vivo, other, 360 h

Q: How did the Activity turn out when `Cc1cc(C)c(C2C(=O)N3C[C@H]4CCCC[C@@H]4CN3C2=O)c(C)c1` was run?
A: 50%

Q: `Cc1cc(C)c(C2C(=O)N3C[C@H]4CCCC[C@H]4CN3C2=O)c(C)c1` (stereo partly drawn) was tested. Which Activity did it give?
A: 50%

Q: For `Cc1cc(C)c(C2C(=O)N3CC(C)CN3C2=O)c(C)c1`, which Activity is on record?
A: 40%

Q: `Cc1cc(C)c(C2C(=O)N3CCC(C)CCN3C2=O)c(C)c1` was tested. Which Activity did it give?
A: 20%

Q: How did the Activity turn out when `Cc1cc(C)c(C2C(=O)N3CC(C)C(C)CN3C2=O)c(C)c1` (stereo not drawn) was run?
A: 20%

Q: For `Cc1cc(C)c(C2C(=O)N3CCCCCN3C2=O)c(C)c1`, which Activity is on record?
A: 20%

Q: For `Cc1cc(C)c(C2C(=O)N3CC(C)(C)CN3C2=O)c(C)c1`, which Activity is on record?
A: 60%

Tested on: Lolium perenne
Assay: Post-emergence herbicidal activity against Lolium perenne (perennial ryegrass) at 500 g a.i./ha measured after 15 days
Assay type: functional
Conditions: not given

Q: For `Cc1cc(C)c(C2C(=O)N3C[C@H]4CCCC[C@@H]4CN3C2=O)c(C)c1`, which Activity is on record?
A: 60%

Q: Which Activity does the source give for `Cc1cc(C)c(C2C(=O)N3C[C@H]4CCCC[C@H]4CN3C2=O)c(C)c1` (stereo partly drawn) here?
A: 90%

Q: `Cc1cc(C)c(C2C(=O)N3CC(C)CN3C2=O)c(C)c1` was tested. Which Activity did it give?
A: 60%

Q: How did the Activity turn out when `Cc1cc(C)c(C2C(=O)N3CCC(C)CCN3C2=O)c(C)c1` was run?
A: 80%

Q: `Cc1cc(C)c(C2C(=O)N3CC(C)C(C)CN3C2=O)c(C)c1` (stereo not drawn) was tested. Which Activity did it give?
A: 80%

Q: How did the Activity turn out when `Cc1cc(C)c(C2C(=O)N3CCCCCN3C2=O)c(C)c1` was run?
A: 50%

Q: Which Activity does the source give for `Cc1cc(C)c(C2C(=O)N3CC(C)(C)CN3C2=O)c(C)c1` here?
A: 90%

Tested on: Avena fatua
Assay: Post-emergence herbicidal activity against Avena fatua at 2000 g a.i./ha after 21 days
Assay type: functional
Conditions: not given

Q: How did the Activity turn out when `Cc1cc(C)c(C2C(=O)N3CCCCCN3C2=O)c(C)c1` was run?
A: 90%

Tested on: Setaria faberi
Assay: Post-emergence herbicidal activity against Setaria faberi (Giant Foxtail) at 500 g a.i./ha after 21 days
Assay type: functional
Conditions: not given

Q: With `Cc1cc(C)c(C2C(=O)N3CCCCCN3C2=O)c(C)c1` as the molecule, how does the Activity read?
A: 90%

Tested on: Lolium perenne
Assay: Post-emergence herbicidal activity against Lolium perenne (perennial ryegrass) at 2000 g a.i./ha after 21 days
Assay type: functional
Conditions: not given

Q: For `Cc1cc(C)c(C2C(=O)N3CCCCCN3C2=O)c(C)c1`, which Activity is on record?
A: 90%

Tested on: Lolium perenne
Assay: Post-emergence herbicidal activity against Lolium perenne (perennial ryegrass) at 500 g a.i./ha after 21 days
Assay type: functional
Conditions: not given

Q: Which Activity does the source give for `Cc1cc(C)c(C2C(=O)N3CCCCCN3C2=O)c(C)c1` here?
A: 60%

Tested on: Setaria faberi
Assay: Post-emergence herbicidal activity against Setaria faberi (Giant Foxtail) at 500 g a.i./ha measured after 15 days
Assay type: functional
Conditions: not given

Q: Which Activity does the source give for `Cc1cc(C)c(C2C(=O)N3C[C@H]4CCCC[C@@H]4CN3C2=O)c(C)c1` here?
A: 80%

Q: For `Cc1cc(C)c(C2C(=O)N3C[C@H]4CCCC[C@H]4CN3C2=O)c(C)c1` (stereo partly drawn), which Activity is on record?
A: 60%

Q: Which Activity does the source give for `Cc1cc(C)c(C2C(=O)N3CC(C)CN3C2=O)c(C)c1` here?
A: 50%

Q: For `Cc1cc(C)c(C2C(=O)N3CCC(C)CCN3C2=O)c(C)c1`, which Activity is on record?
A: 60%

Q: For `Cc1cc(C)c(C2C(=O)N3CC(C)C(C)CN3C2=O)c(C)c1` (stereo not drawn), which Activity is on record?
A: 60%

Q: Which Activity does the source give for `Cc1cc(C)c(C2C(=O)N3CCCCCN3C2=O)c(C)c1` here?
A: 60%

Q: How did the Activity turn out when `Cc1cc(C)c(C2C(=O)N3CC(C)(C)CN3C2=O)c(C)c1` was run?
A: 90%

Tested on: Hordeum vulgare
Assay: Phytotoxicity against Hordeum vulgare (barley) at 500 g a.i./ha applied post-emergence measured after 15 days
Assay type: organism-based
Conditions: in vivo, other, 360 h

Q: How did the Activity turn out when `Cc1cc(C)c(C2C(=O)N3C[C@H]4CCCC[C@@H]4CN3C2=O)c(C)c1` was run?
A: 50%

Q: How did the Activity turn out when `Cc1cc(C)c(C2C(=O)N3C[C@H]4CCCC[C@H]4CN3C2=O)c(C)c1` (stereo partly drawn) was run?
A: 60%

Q: For `Cc1cc(C)c(C2C(=O)N3CC(C)CN3C2=O)c(C)c1`, which Activity is on record?
A: 50%

Q: Which Activity does the source give for `Cc1cc(C)c(C2C(=O)N3CCC(C)CCN3C2=O)c(C)c1` here?
A: 60%

Q: With `Cc1cc(C)c(C2C(=O)N3CC(C)C(C)CN3C2=O)c(C)c1` (stereo not drawn) as the molecule, how does the Activity read?
A: 60%

Q: With `Cc1cc(C)c(C2C(=O)N3CCCCCN3C2=O)c(C)c1` as the molecule, how does the Activity read?
A: 40%

Q: `Cc1cc(C)c(C2C(=O)N3CC(C)(C)CN3C2=O)c(C)c1` was tested. Which Activity did it give?
A: 90%

Tested on: Avena fatua
Assay: Post-emergence herbicidal activity against Avena fatua at 500 g a.i./ha after 21 days
Assay type: functional
Conditions: not given

Q: `Cc1cc(C)c(C2C(=O)N3CCCCCN3C2=O)c(C)c1` was tested. Which Activity did it give?
A: 50%

Tested on: Setaria faberi
Assay: Post-emergence herbicidal activity against Setaria faberi (Giant Foxtail) at 2000 g a.i./ha after 21 days
Assay type: functional
Conditions: not given

Q: `Cc1cc(C)c(C2C(=O)N3CCCCCN3C2=O)c(C)c1` was tested. Which Activity did it give?
A: 90%
